{"source": "patent US20240206462A1", "about": "“ESSENTIAL OIL-BASED AGRICULTURAL COMPOSITION AND METHOD FOR CONTROLLING A PEST USING THE SAME” (MOMENTIVE PERFORMANCE MATERIALS INC., priority 2021, published 2024)", "test_system": "tomato grey mold (Botrytis cinerea)", "assay": "Plate method growth inhibition of fungal plant pathogen on PDA medium", "type": "cell-based", "settings": "concluded from geraniol-based compositions"}
{"compound": "CC(C)=CCCC(C)=CCO", "note": "[geraniol, 3,7-dimethylocta-2,6-dien-1-ol]", "values": [{"measurement": "inhibition activity on Botrytis genus, especially Botrytis cinerea", "value": "high inhibition activity"}]}
